Data reported in patent publication US6787651B2, “Substituted indoles, pharmaceutical compounds containing such indoles and their use as PPAR-γ binding agents” (SmithKline Beecham Corporation, priority 2000, dated 2004).

Biological target: T1, PPARγ ligand binding domain (LBD) (amino acids 195-475) (Homo sapiens, UniProt P37231)
T1 construct: polyHis; made in house; host or cells: Escherichia coli
T1 sequence (P37231 195-475 isoform P37231-2): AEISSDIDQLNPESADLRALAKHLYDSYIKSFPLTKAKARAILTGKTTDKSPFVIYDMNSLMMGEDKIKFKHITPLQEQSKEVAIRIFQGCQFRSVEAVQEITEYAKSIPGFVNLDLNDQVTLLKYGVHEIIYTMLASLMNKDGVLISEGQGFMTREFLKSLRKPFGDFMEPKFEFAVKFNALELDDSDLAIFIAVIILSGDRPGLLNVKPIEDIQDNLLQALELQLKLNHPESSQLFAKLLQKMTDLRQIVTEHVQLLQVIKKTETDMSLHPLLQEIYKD
Experiment: PPAR-γ binding assay (spin plate / gel filtration binding assay, displacement of [3H]BRL 49653)
Settings: read-out: IC50 range in the PPAR-γ Binding Assay
Method: The activity of a given compound in binding to PPAR-γ can be assayed routinely according to procedures known in the art. […] The PPAR-γ binding assay described below was used to determine the PPAR-γ binding activities of the compounds of the invention.
Compounds were tested for their ability to bind to PPARγ using a spin plate assay (gel filtration binding assay). […] Each compound was tested in triplicate. […] The plates were centrifuged (Beckman GS-6R) at 2500 rpm for 5 minutes, 170 μl Scitisafe® scintillation fluid (Fisher) was added to each well, the plates were sealed, and after 1 hour, were counted in a Wallac MicroBeta counter. The amount of nonspecific binding, as assessed by control wells containing 10 μM of the corresponding unlabeled ligand, was subtracted from each data point. For each compound tested, the data was averaged and plots of ligand concentration versus CPM of radioligand bound were constructed. Apparent IC50 values were estimated from nonlinear least-squares fit of the data assuming simple competitive binding.

Structure (SMILES)	IC50 [nM]
CC(C)(C)c1ccc2oc(-c3c(C(=O)O)n(Cc4cccc(C(F)(F)F)c4)c4ccccc34)nc2c1 [Example 249]	0.1 to 9.99
COc1cccc(Cn2c(C(=O)O)c(-c3ccc(C(C)(C)C)cc3)c3cccc(C(=O)C4CC4)c32)c1 [Example 252]	10 to 10000
COc1cccc(Cn2c(C(=O)O)c(-c3ccc(C4CC4)cc3)c3ccccc32)c1 [Example 261]	0.1 to 9.99
O=C(O)c1c(-c2cc3ccccc3s2)c2ccccc2n1Cc1cccc(C(F)(F)F)c1 [Example 232, 3-(Benzothien-2-yl)-1-[3-(trifluoromethyl)benzyl)-indole-2-carboxylic acid]	0.1 to 9.99
O=C(O)c1c(-c2ccc(C3CC3)cc2)c2ccccc2n1Cc1cccc(C(F)(F)F)c1 [Example 260]	0.1 to 9.99
COc1cccc(Cn2c(C(=O)O)c(-c3ccc(C(C)(C)C)cc3)c3cc(CCOCC4CC4)ccc32)c1 [Example 275]	0.1 to 9.99
COc1cccc(Cn2c(C(=O)O)c(-c3ccc(C(C)(C)C)cc3)c3cc(C(O)C4CC4)ccc32)c1 (stereo not shown) [Example 255]	10 to 10000
O=C(O)c1c(C2=NC3(CCCC3)CO2)c2ccccc2n1Cc1cccc(C(F)(F)F)c1 [Example 239]	10 to 10000
O=C(O)c1c(-c2nc3ccccc3o2)c2ccccc2n1Cc1cccc(C(F)(F)F)c1 [Example 247]	10 to 10000
COc1ccc(-c2c(C(=O)O)n(Cc3cccc(OC)c3)c3ccc(OCCN(C)c4nc5ccccc5o4)cc23)cc1 [Example 233]	10 to 10000
COc1cccc(Cn2c(C(=O)O)c(-c3ccc(C(C)(C)C)cc3)c3cc(C(=O)C4CC4)ccc32)c1 [Example 254]	10 to 10000
COc1cccc(Cn2c(C(=O)O)c(-c3ccc(C(C)(C)C)cc3)c3cccc(CC4CC4)c32)c1 [Example 256]	10 to 10000
O=C(O)c1c(-c2nc3cc(Cl)ccc3o2)c2ccccc2n1Cc1cccc(C(F)(F)F)c1 [Example 248]	10 to 10000
Cc1sc(-c2ccccc2)nc1CCOc1ccc2c(c1)cc(C(=O)O)n2CC1CCCO1 (stereo not shown) [Example 276]	10 to 10000
COc1cccc(Cn2c(C(=O)O)c(-c3ccc(C(C)(C)C)cc3)c3cc(CC4CC4)ccc32)c1 [Example 253]	0.1 to 9.99
COc1cccc(Cn2c(C(=O)O)c(-c3ccc(SC4CC4)cc3)c3ccccc32)c1 [Example 263]	0.1 to 9.99
COc1cccc(Cn2c(C(=O)O)c(-c3ccc(C4(C)CC4)cc3)c3ccccc32)c1 [Example 258]	0.1 to 9.99
COc1ccc(-c2c(C(=O)O)n(Cc3cccc(C(F)(F)F)c3)c3ccc(OCCCN(C)c4nc5ccccc5o4)cc23)cc1 [Example 234]	0.1 to 9.99
CCOCCOc1ccc2c(c1)c(-c1cccc(OCC3CC3)c1)c(C(=O)O)n2Cc1cccc(OC)c1 [Example 271]	0.1 to 9.99
O=C(O)c1[nH]c2c(C(=O)c3ccccc3)cccc2c1-c1ccccc1 [Example 251]	10 to 10000
O=C(O)c1c(-c2ccc(SC3CC3)cc2)c2ccccc2n1Cc1cccc(C(F)(F)F)c1 [Example 262]	0.1 to 9.99
COc1cccc(Cn2c(C(=O)O)c(-c3cccc(OCC4CC4)c3)c3cc(OCCOCc4ccccc4)ccc32)c1 [Example 272]	0.1 to 9.99
O=C(O)c1c(C(=O)N2CCOCC2)c2ccccc2n1Cc1cccc(C(F)(F)F)c1 [Example 245]	10 to 10000
CN1CCN(C(=O)c2c(C(=O)O)n(Cc3cccc(C(F)(F)F)c3)c3ccccc23)CC1 [Example 246]	10 to 10000
COc1cccc(Cn2c(C(=O)O)c(-c3ccc(OCC4CC4)cc3)c3cc(OCC(=O)O)ccc32)c1 [Example 267]	10 to 10000
O=C(O)c1c(-c2nc3cc(C(F)(F)F)ccc3s2)c2ccccc2n1Cc1cccc(C(F)(F)F)c1 [Example 257]	0.1 to 9.99
CC1(C)COC(c2c(C(=O)O)n(Cc3cccc(C(F)(F)F)c3)c3ccccc23)=N1 [Example 238]	10 to 10000

More lines, now with the values ahead:

IC50 [nM]	Structure (SMILES)
0.1 to 9.99	COc1cccc(Cn2c(C(=O)O)c(-c3ccc(OCC4CC4)cc3)c3cc(OCC=O)ccc32)c1 [Example 313]
0.1 to 9.99	COc1cccc(Cn2c(C(=O)O)c(-c3ccc(OCC4CC4)cc3)c3cc(OCCCc4ccccc4)ccc32)c1 [Example 320]
0.1 to 9.99	O=C(O)c1c(-c2ccc(S(=O)(=O)C3CC3)cc2)c2ccccc2n1Cc1cccc(C(F)(F)F)c1 [Example 353, 3-[4-(Cyclopropylsulfonyl)phenyl]-1-{[3-(trifluoromethyl)phenyl]methyl}indole-2-carb-oxylic acid]
0.1 to 9.99	CC(=O)c1cnc(-c2c(C(=O)O)n(Cc3cccc(C(F)(F)F)c3)c3ccccc23)s1 [Example 342]
0.1 to 9.99	O=C(O)c1c(-c2cccc(OCC3CC3)c2)c2ccccc2n1Cc1cccc(OC(F)(F)F)c1 [Example 340]
0.1 to 9.99	COc1cccc(Cn2c(C(=O)O)c(-c3ccc(OCC4CC4)cc3)c3cc(OCc4cccc(C(F)(F)F)c4)ccc32)c1 [Example 321]
10 to 10000	COc1cccc(Cn2c(C(=O)O)c(-c3ccc(OCC4CC4)cc3)c3cc(OCc4ccc(C(F)(F)F)cc4)ccc32)c1 [Example 319]
0.1 to 9.99	COCCOc1ccc2c(c1)c(-c1ccc(OCC3CC3)cc1)c(C(=O)O)n2Cc1cccc(OC)c1 [Example 312]
10 to 10000	COc1ccc(-c2c(C(=O)O)n(CC(=O)c3ccccc3)c3ccccc23)cc1 [Example 281]
10 to 10000	COc1ccc(-c2c(C(=O)C(F)(F)F)n(Cc3cccc(C(F)(F)F)c3)c3ccccc23)cc1 [Example 360, 2,2,2-Trifluoro-1-{3-(4-methoxyphenyl)-1-[3-(trifluoromethyl)benzyl]-1H-indol-2-yl}ethanone]
0.1 to 9.99	COc1cccc(Cn2c(C(=O)O)c(-c3ccc(OCC4CC4)cc3)c3cc(OCC4CCC4)ccc32)c1 [Example 314]
0.1 to 9.99	COc1cccc(Cn2c(C(=O)O)c(-c3ccc(C(=O)N(C)C4CCCC4)cc3)c3ccccc32)c1 [Example 304]
0.1 to 9.99	CCOc1ccc(-c2c(C(=O)O)n(Cc3ccc(F)cc3)c3ccc(CCOCC4CC4)cc23)cc1 [Example 348, 5-[2-(Cyclopropylmethoxy)ethyl]-3-(4-ethoxyphenyl)-1-(4-fluorobenzyl)-1H-indole-2-carboxylic acid]
0.1 to 9.99	CCCCOc1ccc2c(c1)c(-c1ccc(OCC3CC3)cc1)c(C(=O)O)n2Cc1cccc(OC)c1 [Example 332]
10 to 10000	COc1cccc(Cn2c(C(=O)O)c(-c3ccc(OCC4CC4)cc3)c3cc(OCc4ccc(C(C)(C)C)cc4)ccc32)c1 [Example 318]
0.1 to 9.99	COc1cccc(Cn2c(C(=O)O)c(-c3ccc(OCC4CC4)cc3)c3ccccc32)c1 [Example 305, 3-[4-(Cyclopropylmethoxy)phenyl]-1-(3-methoxybenzyl)-1H-indole-2-carboxylic acid]

IC50 [nM]	Structure (SMILES)
10 to 10000	CN1CCCC1CCOc1ccc2cc(C(=O)O)n(Cc3cccc(C(F)(F)F)c3)c2c1 (stereo not shown) [Example 280]
0.1 to 9.99	COc1cccc(Cn2c(C(=O)O)c(-c3ccc(OCc4ccc5ccccc5n4)cc3)c3ccccc32)c1 [Example 307]
10 to 10000	COc1ccc(-c2c(C(=O)O)n(C(=O)c3cccc(C(F)(F)F)c3)c3ccccc23)cc1 [Example 338, 3-(4-Methoxyphenyl)-1-{[3-(trifluoromethyl)phenyl]carbonyl}indole-2-carboxylic Acid]
10 to 10000	C=CCOc1ccc2c(c1)c(-c1ccc(OCC3CC3)cc1)c(C(=O)O)n2Cc1cccc(OC)c1 [Example 333]
0.1 to 9.99	COc1ccc(-c2c(C(=O)O)n(/C=C/c3ccccc3)c3ccccc23)cc1 [Example 349, 1-((1E)-2-Phenylvinyl)-3-(4-methoxyphenyl)indole-2-carboxylate]
0.1 to 9.99	O=C(O)c1c(-c2ccc(OCC3CC3)cc2)c2ccccc2n1Cc1cccc(C(F)(F)F)c1 [Example 308]
0.1 to 9.99	CCCOc1ccc2c(c1)c(-c1ccc(OCC3CC3)cc1)c(C(=O)O)n2Cc1cccc(OC)c1 [Example 331]
0.1 to 9.99	COc1cccc(COc2ccc3c(c2)c(-c2ccc(OCC4CC4)cc2)c(C(=O)O)n3Cc2cccc(OC)c2)c1 [Example 315]
10 to 10000	COc1ccc(-c2c(C(=O)O)n(S(=O)(=O)c3cccc(C(F)(F)F)c3)c3ccccc23)cc1 [Example 337, 3-(4-Methoxyphenyl)-1-{[3-(trifluoromethyl)phenyl]sulfonyl}indole-2-carboxylic acid]
10 to 10000	COc1cccc(Cn2c(C(=O)O)c(-c3cccc(NC(=O)C4CC4)c3)c3ccccc32)c1 [Example 326]
10 to 10000	COc1cccc(Cn2c(C(=O)O)c(-c3ccc(OCC4CC4)cc3)c3cc(OCc4ccc(C(=O)O)cc4)ccc32)c1 [Example 322]
0.1 to 9.99	COc1cccc(Cn2c(C(=O)O)c(-c3ccc(OCC4CC4)cc3)c3cc(OCC4CC4)ccc32)c1 [Example 334]
0.1 to 9.99	COc1cccc(-c2c(C(=O)O)n(Cc3cccc(OCC4CC4)c3)c3ccccc23)c1 [Example 283]
0.1 to 9.99	CCOc1ccc2c(c1)c(-c1ccc(OCC3CC3)cc1)c(C(=O)O)n2Cc1cccc(OC)c1 [Example 330, 3-[4-(Cyclopropylmethoxy)phenyl]-5-ethoxy-1-(3-methoxybenzyl)-1H-indole-2-carboxylic acid]
0.1 to 9.99	COc1cccc(Cn2c(C(=O)O)c(-c3ncc(C4CC4)s3)c3ccccc32)c1 [Example 344]
